{
  "source": "ChEMBL document CHEMBL2331126",
  "about": "“Alkyl esters of gallic acid as anticancer agents: a review” (Eur J Med Chem, 2013)",
  "key": {"[1]": {"test_system": "CCRF-CEM", "assay": "Cytotoxicity against human CEM cells", "assay_type": "cell-based"}, "[2]": {"test_system": "B16-F10", "assay": "Cytotoxicity against mouse B16F10 cells", "assay_type": "functional, cell-based"}, "[3]": {"test_system": "L1210", "assay": "Cytotoxicity against mouse L1210 cells", "assay_type": "functional, cell-based"}, "[4]": {"test_system": "MDA-MB-231", "assay": "Cytotoxicity against human MDA-MB-231 cells", "assay_type": "functional, cell-based"}, "[5]": {"test_system": "HL-60", "assay": "Cytotoxicity against human HL60 cells", "assay_type": "functional, cell-based"}, "[6]": {"test_system": "L929", "assay": "Cytotoxicity against mouse L929 cells", "assay_type": "functional, cell-based"}, "[7]": {"assay": "Cytotoxicity against mouse WEHI231 cells", "assay_type": "functional, cell-based"}, "[8]": {"biological_target": "Disintegrin and metalloproteinase domain-containing protein 17 (Homo sapiens) (UniProt P78536)", "sequence (P78536 whole entry, the tested form may be a part)": "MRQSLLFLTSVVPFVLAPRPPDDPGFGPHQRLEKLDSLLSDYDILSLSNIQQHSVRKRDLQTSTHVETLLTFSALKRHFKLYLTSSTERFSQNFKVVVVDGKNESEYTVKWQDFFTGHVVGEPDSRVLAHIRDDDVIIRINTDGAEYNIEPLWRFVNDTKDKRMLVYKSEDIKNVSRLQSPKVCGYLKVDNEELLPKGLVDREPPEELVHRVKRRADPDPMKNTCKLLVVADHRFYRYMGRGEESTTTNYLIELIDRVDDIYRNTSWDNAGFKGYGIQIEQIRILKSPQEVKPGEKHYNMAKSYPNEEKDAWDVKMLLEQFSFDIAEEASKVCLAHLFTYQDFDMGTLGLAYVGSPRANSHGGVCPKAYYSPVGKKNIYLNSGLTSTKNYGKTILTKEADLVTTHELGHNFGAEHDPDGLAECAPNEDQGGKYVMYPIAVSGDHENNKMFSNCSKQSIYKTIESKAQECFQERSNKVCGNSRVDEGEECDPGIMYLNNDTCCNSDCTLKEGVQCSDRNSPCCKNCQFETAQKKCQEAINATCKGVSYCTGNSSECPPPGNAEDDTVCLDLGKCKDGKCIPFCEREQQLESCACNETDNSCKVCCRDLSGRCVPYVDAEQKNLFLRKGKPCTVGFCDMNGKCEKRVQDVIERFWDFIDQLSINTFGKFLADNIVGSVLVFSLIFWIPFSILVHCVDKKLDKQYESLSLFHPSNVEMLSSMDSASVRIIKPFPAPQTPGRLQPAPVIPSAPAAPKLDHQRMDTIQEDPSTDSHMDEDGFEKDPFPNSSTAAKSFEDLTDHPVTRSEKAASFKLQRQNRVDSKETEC", "assay": "Inhibition of ADAM17 alpha-secretase activity in human […] cells using amyloid beta precursor protein as substrate at 40 ug/ml after 24 hrs by fluorimetric analysis", "assay_type": "cell-based"}, "[9]": {"assay": "Antimigratory activity against human U87 cells at 30 ug/ml after 8 hrs by wound closure assay", "assay_type": "functional, U-87MG ATCC"}, "[10]": {"test_system": "K562", "assay": "Cytotoxicity against human imatinib-resistant K562 cells", "assay_type": "functional, cell-based"}, "[11]": {"assay": "Cytotoxicity against human PLC/PRF/5 cells", "assay_type": "functional, cell-based"}, "[12]": {"biological_target": "Disintegrin and metalloproteinase domain-containing protein 17 (Homo sapiens) (UniProt P78536)", "assay": "Inhibition of ADAM17 alpha-secretase activity in human […] cells using amyloid beta precursor protein as substrate at 30 ug/ml after 24 hrs by fluorimetric analysis", "assay_type": "cell-based"}, "[13]": {"test_system": "U-251", "assay": "Antimigratory activity against human U251 cells at 40 ug/ml after 8 hrs by wound closure assay", "assay_type": "functional"}, "[14]": {"assay": "Cytotoxicity against human HL60RG cells", "assay_type": "functional, cell-based"}, "[15]": {"test_system": "K562", "assay": "Cytotoxicity against human K562 cells", "assay_type": "functional, cell-based"}, "[16]": {"test_system": "A549", "assay": "Cytotoxicity against human A549 cells", "assay_type": "functional, cell-based"}, "[17]": {"biological_target": "Disintegrin and metalloproteinase domain-containing protein 17 (Homo sapiens) (UniProt P78536)", "assay": "Inhibition of ADAM17 alpha-secretase activity in human […] cells using amyloid beta precursor protein as substrate at 20 ug/ml after 24 hrs by fluorimetric analysis", "assay_type": "cell-based"}, "[18]": {"assay": "Cytotoxicity against rat dRLh-84 cells", "assay_type": "functional, cell-based"}, "[19]": {"test_system": "U-251", "assay": "Antimigratory activity against human U251 cells at 30 ug/ml after 8 hrs by wound closure assay", "assay_type": "functional"}, "[20]": {"test_system": "Calu-6", "assay": "Cytotoxicity against human Calu6 cells", "assay_type": "functional, cell-based"}, "[21]": {"test_system": "KB", "assay": "Cytotoxicity against human KB cells", "assay_type": "functional, cell-based"}, "[22]": {"assay": "Cytotoxicity against rat endothelial cells", "settings": "Endothelial cell"}, "[23]": {"test_system": "HeLa", "assay": "Cytotoxicity against human HeLa cells", "assay_type": "functional, cell-based"}, "[24]": {"assay": "Cytotoxicity against rat fibroblast cells", "assay_type": "cell-based"}, "[25]": {"test_system": "P388-D1 (Mus musculus)", "assay": "Cytotoxicity against mouse P388D1 cells"}, "[26]": {"assay": "Antimigratory activity against human U87 cells at 40 ug/ml after 8 hrs by wound closure assay", "assay_type": "functional, U-87MG ATCC"}},
  "data": [
    {"smiles": "CCCCCCCCCCOC(=O)c1cc(O)c(O)c(O)c1", "note": "[DECYL GALLATE]", "values": [
      {"measurement": "IC50", "setting": "[1]", "result": 9.8, "unit": "µM"},
      {"measurement": "IC50", "setting": "[2]", "result": 82, "unit": "µM"},
      {"measurement": "IC50", "setting": "[3]", "result": 12.2, "unit": "µM"}
    ]},
    {"smiles": "CCCCCCCCCCCCOC(=O)c1cc(O)c(O)c(O)c1", "note": "[DODECYL GALLATE]", "values": [
      {"measurement": "IC50", "setting": "[4]", "result": 1, "unit": "µM"},
      {"measurement": "IC50", "setting": "[1]", "result": 47.4, "unit": "µM"},
      {"measurement": "IC50", "setting": "[5]", "result": 33, "unit": "µM"},
      {"measurement": "IC50", "setting": "[2]", "result": 48, "unit": "µM"},
      {"measurement": "IC50", "setting": "[6]", "result": 1, "unit": "µM"},
      {"measurement": "IC50", "setting": "[3]", "result": 10.9, "unit": "µM"},
      {"measurement": "IC50", "setting": "[7]", "result": 1, "unit": "µM"}
    ]},
    {"smiles": "O=C(O)c1cc(O)c(O)c(O)c1", "note": "[GALLIC ACID]", "values": [
      {"measurement": "inhibition", "setting": "[8]", "result": 38.9, "unit": "%"},
      {"measurement": "Activity", "setting": "[9]", "result": 29, "unit": "%"},
      {"measurement": "IC50", "setting": "[10]", "result": 4.75, "unit": "µM"},
      {"measurement": "IC50", "setting": "[11]", "result": 387, "unit": "µM"},
      {"measurement": "inhibition", "setting": "[12]", "result": 43.5, "unit": "%"},
      {"measurement": "Activity", "setting": "[13]", "result": 31, "unit": "%"},
      {"measurement": "IC50", "setting": "[14]", "result": 317, "unit": "µM"},
      {"measurement": "IC50", "setting": "[5]", "result": 300, "unit": "µM"},
      {"measurement": "IC50", "setting": "[15]", "result": 33, "unit": "µM"},
      {"measurement": "IC50", "setting": "[16]", "result": 100, "unit": "µM"},
      {"measurement": "inhibition", "setting": "[17]", "result": 47.9, "unit": "%"},
      {"measurement": "IC50", "setting": "[18]", "result": 364, "unit": "µM"},
      {"measurement": "IC50", "setting": "[6]", "result": 250, "unit": "µM"},
      {"measurement": "Activity", "setting": "[19]", "result": 51, "unit": "%"},
      {"measurement": "IC50", "setting": "[20]", "result": 10, "unit": "µM"},
      {"measurement": "IC50", "setting": "[21]", "result": 13.2, "unit": "µg/mL"},
      {"measurement": "IC50", "setting": "[22]", "result": "> 20", "unit": "µg/mL"},
      {"measurement": "IC50", "setting": "[23]", "result": 358, "unit": "µM"},
      {"measurement": "IC50", "setting": "[24]", "result": "> 20", "unit": "µg/mL"},
      {"measurement": "IC50", "setting": "[25]", "result": 282, "unit": "µM"},
      {"measurement": "IC50", "setting": "[7]", "result": 40, "unit": "µM"},
      {"measurement": "Activity", "setting": "[26]", "result": 30, "unit": "%"}
    ]},
    {"smiles": "CCCCCCCCOC(=O)c1cc(O)c(O)c(O)c1", "note": "[OCTYL_GALLATE]", "values": [
      {"measurement": "IC50", "setting": "[1]", "result": 50, "unit": "µM"},
      {"measurement": "IC50", "setting": "[2]", "result": 45, "unit": "µM"},
      {"measurement": "IC50", "setting": "[6]", "result": 1, "unit": "µM"},
      {"measurement": "IC50", "setting": "[3]", "result": 22, "unit": "µM"},
      {"measurement": "IC50", "setting": "[7]", "result": 1.5, "unit": "µM"}
    ]},
    {"smiles": "CCCOC(=O)c1cc(O)c(O)c(O)c1", "note": "[PROPYL GALLATE]", "values": [
      {"measurement": "IC50", "setting": "[6]", "result": 40, "unit": "µM"},
      {"measurement": "IC50", "setting": "[23]", "result": 800, "unit": "µM"},
      {"measurement": "IC50", "setting": "[7]", "result": 12, "unit": "µM"}
    ]},
    {"smiles": "CCCCCCCCCCCCCCOC(=O)c1cc(O)c(O)c(O)c1", "note": "[TETRADECYL GALLATE]", "values": [
      {"measurement": "IC50", "setting": "[1]", "result": "> 50", "unit": "µM"},
      {"measurement": "IC50", "setting": "[2]", "result": 60, "unit": "µM"},
      {"measurement": "IC50", "setting": "[3]", "result": 8.5, "unit": "µM"}
    ]}
  ]
}
